From patent publication US8889704B2 (Array BioPharma Inc., priority 2011, dated 2014)
Counter-ions that a name gives are not always drawn.

Key:
Format in all cases: biochemical
recombinant rat PIM-3 = recombinant rat PIM-3 (Rattus norvegicus, UniProt O70444); assay: PIM-3 Assay (as Example A); details: averaged IC50; 30 μM ATP, 3.75 μM PIM2tide, 0.5 nM PIM-3
How it was run: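 33P incorporation from 30 μM [γ-33P]ATP into 3.75 μM PIM2tide by 0.5 nM rat PIM-3, 60 min at 22 °C in pH 7.4 MOPS buffer, read by P81 filter capture and scintillation counting. Compounds tested in 3-fold dilutions up to 10 μM final, 2% DMSO; percent-of-control data fitted by 4-parameter logistic for IC50.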

PIM-1 = PIM-1 (Homo sapiens, UniProt P11309); assay: Enzyme PIM-1 Assay ([33P]ATP incorporation into PIM2tide, filter plate); details: averaged IC50; 35 μM ATP, 7.5 μM PIM2tide, 0.25 nM PIM-1, 60 min at 22° C.
How it was run: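 Ten-point, 3-fold dilution series (10 μM top, 2% DMSO final) tested for inhibition of 33P transfer from 35 μM ATP to 7.5 μM PIM2tide by 0.25 nM PIM-1. Reaction 60 min, 22 °C, pH 7.4 MOPS/MgCl2 buffer; phosphocellulose capture, scintillation counting, IC50 where fitted POC equals 50.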

[1] = biological target: T1, GST-tagged recombinant full-length human Pim-2 (Homo sapiens, UniProt Q9P1W9); assay: PIM-2 Assay (as Example A); details: averaged IC50; 4 μM ATP, 1.0 μM PIM2tide, 1.5 nM Pim-2
T1 construct: GST-tagged recombinant full-length human Pim-2; GST
How it was run: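 IC50 was derived by 4-parameter logistic fitting of percent-of-control data over a 10-point, 3-fold series (highest 10 μM, 2% DMSO). Reactions held 1.5 nM GST-Pim-2 (full-length, human), 4 μM [γ-33P]ATP and 1.0 μM PIM2tide for 60 min at 22 °C, pH 7.4; 33P-peptide captured on P81 filters.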

Sequence of PIM-1 (P11309 whole entry, species assumed): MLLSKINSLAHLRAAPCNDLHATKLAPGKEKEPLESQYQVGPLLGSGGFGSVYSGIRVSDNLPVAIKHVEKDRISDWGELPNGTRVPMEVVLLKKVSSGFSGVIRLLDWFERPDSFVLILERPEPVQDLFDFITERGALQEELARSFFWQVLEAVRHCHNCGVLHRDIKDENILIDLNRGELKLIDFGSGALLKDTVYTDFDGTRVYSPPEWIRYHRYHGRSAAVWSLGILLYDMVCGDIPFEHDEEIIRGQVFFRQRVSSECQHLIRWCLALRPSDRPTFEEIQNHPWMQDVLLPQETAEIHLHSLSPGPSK
T1 sequence (Q9P1W9 whole entry): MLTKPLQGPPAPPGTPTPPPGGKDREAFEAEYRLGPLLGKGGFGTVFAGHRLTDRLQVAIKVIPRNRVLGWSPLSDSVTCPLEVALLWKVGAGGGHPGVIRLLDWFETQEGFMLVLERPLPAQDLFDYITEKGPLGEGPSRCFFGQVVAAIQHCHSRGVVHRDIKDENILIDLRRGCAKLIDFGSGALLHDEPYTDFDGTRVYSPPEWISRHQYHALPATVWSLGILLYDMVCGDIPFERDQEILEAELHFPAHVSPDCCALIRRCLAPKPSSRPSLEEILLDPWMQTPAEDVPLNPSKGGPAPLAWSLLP

SMILES	IC50 (recombinant rat PIM-3)	IC50 (PIM-1)	IC50 [1]
N#Cc1cccc2ccc(-c3nnc4ccc([C@@H](N5C[C@@H]6C[C@H]5CN6)C(F)(F)F)cn34)nc12 [Example 89, 2-(6-((R)-1-((1S,4S)-2,5-diazabicyclo[2.2.1]heptan-2-yl)-2,2,2-trifluoroethyl)-[1,2,4]triazolo[4,3-a]pyridin-3-yl)quinoline-8-carbonitrile dihydrochloride]	14 nM	5.38 nM	> 100 nM
COCCOc1cc(F)cc2ccc(-c3nnc4ccc([C@@H](N5CC[C@H](N)C5)C(F)(F)F)cn34)nc12 [Example 98, (S)-1-((R)-2,2,2-trifluoro-1-(3-(6-fluoro-8-(2-methoxyethoxy)quinolin-2-yl)-[1,2,4]triazolo[4,3-a]pyridin-6-yl)ethyl)pyrrolidin-3-amine hydrochloride]	1.8 nM	0.38 nM	> 100 nM
COc1cccc2ccc(-c3nnc4ccc([C@@H](N5C[C@@H](N)[C@@H](O)C5)C(F)(F)F)cn34)nc12 [Example 137, (3S,4R)-4-amino-1-((R)-2,2,2-trifluoro-1-(3-(8-methoxyquinolin-2-yl)-[1,2,4]triazolo[4,3-a]pyridin-6-yl)ethyl)pyrrolidin-3-ol dihydrochloride]	34 nM	3.5 nM	> 1000 nM
CC(C)(O)Cc1cc2nc(-c3nnc4ccc([C@H](N5CC[C@H](N)C5)C(F)(F)F)cn34)ccc2cc1F [Example 237, dihydrochloride]	1.8 nM	2.91 nM	211 nM
COCCOc1ccc2cc(F)c(-c3nnc4ccc(C(N5CC[C@](C)(N)C5)C(F)(F)F)cn34)nc2c1 (stereo in doubt) [Example 327, (S)-3-methyl-1-((R)-2,2,2-trifluoro-1-(3-(3-fluoro-7-(2-methoxyethoxy)quinolin-2-yl)-[1,2,4]triazolo[4,3-a]pyridin-6-yl)ethyl)pyrrolidin-3-amine]	1.34 nM	0.42 nM	340 nM
CCOc1cc2nc(-c3nnc4ccc([C@H](N5CC[C@@H](CN)C5)C(F)(F)F)cn34)ccc2cc1F [Example 295, ((S)-1-((S)-1-(3-(7-ethoxy-6-fluoroquinolin-2-yl)-[1,2,4]triazolo[4,3-a]pyridin-6-yl)-2,2,2-trifluoroethyl)pyrrolidin-3-yl)methanamine hydrochloride]	12 nM	2.55 nM	522 nM
N[C@H]1CCN([C@H](c2ccc3nnc(-c4ccc5cccc(O)c5n4)n3c2)C(F)(F)F)C1 [Example 208, 2-(6-((R)-1-((S)-3-aminopyrrolidin-1-yl)-2,2,2-trifluoroethyl)-[1,2,4]triazolo[4,3-a]pyridin-3-yl)quinolin-8-ol dihydrochloride]	2.5 nM	0.41 nM	> 1000 nM
C[C@H](c1ccc2nnc(-c3ccc4cccc(C(C)(C)C)c4n3)n2c1)N1CC[C@H](N)C1 [Example 307, (S)-1-((R)-1-(3-(8-tert-butylquinolin-2-yl)-[1,2,4]triazolo[4,3-a]pyridin-6-yl)ethyl)pyrrolidin-3-amine trihydrochloride]	6.9 nM	1.64 nM	62.4 nM
CC(C)Oc1cccc2ccc(-c3nnc4ccc([C@@H](N5CC[C@H](NCCF)C5)C(F)(F)F)cn34)nc12 [Example 81, (S)—N-(2-fluoroethyl)-1-((R)-2,2,2-trifluoro-1-(3-(8-isopropoxyquinolin-2-yl)-[1,2,4]triazolo[4,3-a]pyridin-6-yl)ethyl)pyrrolidin-3-amine dihydrochloride]	2.8 nM	0.37 nM	> 100 nM
CCOc1cc2nc(-c3nnc4ccc([C@@H](N5CCC(N)(CC)C5)C(F)(F)F)cn34)ccc2cc1F (single isomer, unassigned; diastereomer 1) [Example 243, dihydrochloride]	2.1 nM	0.54 nM	728 nM
COc1cc(C)cc2ccc(-c3nnc4ccc([C@@H](N5CC[C@H](N)C5)C(F)(F)F)cn34)nc12 [Example 127, (S)-1-((R)-2,2,2-trifluoro-1-(3-(8-methoxy-6-methylquinolin-2-yl)-[1,2,4]triazolo[4,3-a]pyridin-6-yl)ethyl)pyrrolidin-3-amine hydrochloride]	11 nM	3.28 nM	> 100 nM
OCC1(c2cc(F)cc3ccc(-c4nnc5ccc([C@@H](N6CC[C@H](O)C6)C(F)(F)F)cn45)nc23)CC1 [Example 126, (S)-1-((R)-2,2,2-trifluoro-1-(3-(6-fluoro-8-(1-(hydroxymethyl)cyclopropyl)quinolin-2-yl)-[1,2,4]triazolo[4,3-a]pyridin-6-yl)ethyl)pyrrolidin-3-ol hydrochloride]	1.9 nM	0.28 nM	> 100 nM
COCCc1ccc2ccc(-c3nnc4ccc([C@@H](N5CC[C@H](N)C5)C(F)(F)F)cn34)nc2c1 [Example 269, (S)-1-((R)-2,2,2-trifluoro-1-(3-(7-(2-methoxyethyl)quinolin-2-yl)-[1,2,4]triazolo[4,3-a]pyridin-6-yl)ethyl)pyrrolidin-3-amine dihydrochloride]	2 nM	0.37 nM	413 nM
CC(C)Oc1cccc2ccc(-c3nnc4ccc([C@H](N5CCC(C)(O)C5)C(F)(F)F)cn34)nc12 (single isomer, unassigned; diastereomer 2) [Example 207]	40 nM	58 nM	> 1000 nM

Stronger by IC50 (recombinant rat PIM-3), values ahead:

IC50 (recombinant rat PIM-3)	IC50 (PIM-1)	IC50 [1]	SMILES
1.1 nM	0.1 nM	6.5 nM	CC(C)(C)c1cccc2ccc(-c3nnc4ccc([C@@H](N5CC[C@H](NCCO)C5)C(F)(F)F)cn34)nc12 [Example 100, 2-((S)-1-((R)-1-(3-(8-tert-butylquinolin-2-yl)-[1,2,4]triazolo[4,3-a]pyridin-6-yl)-2,2,2-trifluoroethyl)pyrrolidin-3-ylamino)ethanol dihydrochloride]
1 nM	1.13 nM	28 nM	CC(C)(C)NC(=O)c1ccc2ccc(-c3nnc4ccc([C@@H](N5CC[C@H](N)C5)C(F)(F)F)cn34)nc2c1C1CC1 [Example 83, 2-(6-((R)-1-((S)-3-aminopyrrolidin-1-yl)-2,2,2-trifluoroethyl)-[1,2,4]triazolo[4,3-a]pyridin-3-yl)-N-tert-butyl-8-cyclopropylquinoline-7-carboxamide dihydrochloride]
0.9 nM	0.3 nM	150 nM	CC(C)Oc1cccc2ccc(-c3nnc4ccc([C@@H](N5CCC(N)(CO)C5)C(F)(F)F)cn34)nc12 (stereo partly drawn) [Example 197, (3-amino-1-((R)-2,2,2-trifluoro-1-(3-(8-isopropoxyquinolin-2-yl)-[1,2,4]triazolo[4,3-a]pyridin-6-yl)ethyl)pyrrolidin-3-yl)methanol dihydrochloride]
0.8 nM	0.51 nM	83 nM	CCOc1cc2nc(-c3nnc4ccc([C@H](N5CC[C@H](N)C5)C(F)(F)F)cn34)ccc2cc1F [Example 249, (S)-1-((S)-1-(3-(7-ethoxy-6-fluoroquinolin-2-yl)-[1,2,4]triazolo[4,3-a]pyridin-6-yl)-2,2,2-trifluoroethyl)pyrrolidin-3-amine dihydrochloride]
0.5 nM	0.26 nM	49 nM	CNC(=O)c1ccc2ccc(-c3nnc4ccc([C@@H](N5CC[C@H](N)C5)C(F)(F)F)cn34)nc2c1 [Example 42, 2-(6-((R)-1-((S)-3-aminopyrrolidin-1-yl)-2,2,2-trifluoroethyl)-[1,2,4]triazolo[4,3-a]pyridin-3-yl)-N-methylquinoline-7-carboxamide dihydrochloride]
0.5 nM	0.14 nM	48 nM	COC[C@@H](C)Oc1cc(F)cc2ccc(-c3nnc4ccc([C@@H](N5CC[C@H](N)C5)C(F)(F)F)cn34)nc12 [Example 159, (S)-1-((R)-2,2,2-trifluoro-1-(3-(6-fluoro-8-((R)-1-methoxypropan-2-yloxy)quinolin-2-yl)-[1,2,4]triazolo[4,3-a]pyridin-6-yl)ethyl)pyrrolidin-3-amine dihydrochloride]
0.4 nM	0.22 nM	18.4 nM	CC(C)Oc1ccc2ccc(-c3nnc4ccc([C@H](N5CC[C@](C)(N)C5)C(F)(F)F)cn34)nc2c1 [Example 314, (S)-3-methyl-1-((S)-2,2,2-trifluoro-1-(3-(7-isopropoxyquinolin-2-yl)-[1,2,4]triazolo[4,3-a]pyridin-6-yl)ethyl)pyrrolidin-3-amine]
0.2 nM	0.13 nM	8.7 nM	CC(C)(CO)c1cc(F)cc2ccc(-c3nnc4ccc([C@@H](N5CC[C@H](N)C5)C(F)(F)F)cn34)nc12 [Example 121, 2-(2-(6-((R)-1-((S)-3-aminopyrrolidin-1-yl)-2,2,2-trifluoroethyl)-[1,2,4]triazolo[4,3-a]pyridin-3-yl)-6-fluoroquinolin-8-yl)-2-methylpropan-1-ol dihydrochloride]
